Where two headings read alike, the source gives them in different places.
Experiments:
recombinant human CK2 = target: T1, recombinant human CK2 (Homo sapiens, UniProt P68400); assay: CK2 assay (cell-free, 33P-ATP filter plate); type: biochemical
T1 construct: purchased Upstate
Protocol: Modulatory activity of compounds described herein was assessed in vitro in cell-free CK2 assays by the following method.
Test compounds in aqueous solution were added at a volume of 10 microliters, to a reaction mixture comprising 10 microliters Assay Dilution Buffer (ADB; 20 mM MOPS, pH 7.2, 25 mM beta-glycerolphosphate, 5 mM EGTA, 1 mM sodium orthovanadate and 1 mM dithiothreitol), 10 microliters of substrate peptide (RRRDDDSDDD, dissolved in ADB at a concentration of 1 mM), 10 microliters of recombinant human CK2 (25 ng dissolved in ADB; Upstate). Reactions were initiated by the addition of 10 microliters of ATP Solution (90% 75 mM MgCl2, 75 micromolar ATP dissolved in ADB; 10% [γ-^33P]ATP (stock 1 mCi/100 μl; 3000 Ci/mmol (Perkin Elmer) and maintained for 10 minutes at 30 degrees C. The reactions were quenched with 100 microliters of 0.75% phosphoric acid, then transferred to and filtered through a phosphocellulose filter plate (Millipore). After washing each well 5 times with 0.75% phosphoric acid, the plate was dried under vacuum for 5 min and, following the addition of 15 ul of scintillation fluid to each well, the residual radioactivity was measured using a Wallac luminescence counter.

recombinant PIM-1 = recombinant PIM-1 (Homo sapiens, UniProt P11309); assay: PIM-1 assay (33P-ATP filter plate); type: biochemical; details: read-out: PIM1: IC50
Protocol: The following procedure was used to assay the PIM-1 kinase activity of compounds of the invention. Other methods for assaying PIM-1 and other PIM kinases, as well as methods to assay for activity against the various kinases are known in the art.
In a final reaction volume of 50 ul, recombinant PIM-1 (1 ng) was incubated with 12 mM MOPS pH 7.0, 0.4 mM EDTA, glycerol 1%, brij 35 0.002%, 2-mercaptoethanol 0.02%, BSA 0.2 mg/ml, 100 uM KKRNRTLTK, 10 mM MgAcetate, 15 uM ATP, [γ-^33P-ATP] (specific activity approx. 500 cpm/pmol), DMSO 4% and test inhibitor compound at the required concentration. The reaction was initiated by the addition of the Magnesium ATP mixture. After 40 min incubation at 23° C., the reactions were quenched by the addition of 100 ul 0.75% Phosphoric acid, and the labeled peptide collected by filtration through a phosphocellulose filter plate. The plate was washed 4 times with 0.075% phosphoric acid (100 ul per well) and then, after the addition of scintillation fluid (20 ul per well), the counts were measured by a scintillation counter.

recombinant human PIM2 = recombinant human PIM2 (Homo sapiens, UniProt Q9P1W9); assay: PIM-2 assay (33P-ATP filter plate); type: biochemical
Protocol: PIM-2 Assay Method: Test compounds dissolved and diluted in DMSO (2 μl) were added to a reaction mixture comprising 10 μl of 5× Reaction Buffer (40 mM MOPS pH 7.0, 5 mM EDTA), 10 μl of recombinant human PIM2 solution (4 ng PIM-2 dissolved in dilution buffer (20 mM MOPS pH 7.0; EDTA 1 mM; 5% Glycerol; 0.01% Brij 35; […]; […] 2-mercaptoethanol; 1 mg/ml BSA)) and 8 ul of water. Reactions were initiated by the addition of 10 ul of ATP Solution (49% (15 mM MgCl2; 75 uM ATP) 1% ([γ-^33P]ATP: Stock 1 mCi/1000; 3000Ci/mmol (Perkin Elmer)) and 10 ul of substrate peptide solution (RSRSSYPAGT, dissolved in water at a concentration of 1 mM), Reactions were maintained for 10 min at 30° C. The reactions were quenched with 100 ul of 0.75% Phosphoric acid, then transferred to and filtered through a Phosphocellulose filter plate (Millipore, MSPH-N6B-50). After washing each well 4 times with 0.75% Phosphoric acid, scintillation fluid (20 uL) was added to each well and the residual radioactivity was measured using a Wallac luminescence counter.

K-562 = assay: Alamar Blue cell proliferation assay, K-562; type: cell-based; details: Homo sapiens
Protocol: (§1) A representative cell-proliferation assay protocol using Alamar Blue dye (stored at 4° C., use 20 ul per well) is described hereafter.
(§2) a. Split and trypsinize cells.
(§3) b. Count cells using hemocytometer.
(§4) c. Plate 4,000-5,000 cells per well in 100 μl of medium and seed into a 96-well plate according to the following plate layout. Add cell culture medium only to wells B10 to B12. Wells B1 to B9 have cells but no compound added.
(§5) d. Add 100 μl of 2× drug dilution to each well in a concentration shown in the plate layout above. At the same time, add 100 μl of media into the control wells (wells B10 to B12). Total volume is 200 μl/well.
(§6) e. Incubate four (4) days at 37° C., 5% CO2 in a humidified incubator.
(§7) f. Add 20 μl Alamar Blue reagent to each well.
(§8) g. Incubate for four (4) hours at 37° C., 5% CO2 in a humidified incubator.
(§9) h. Record fluorescence at an excitation wavelength of 544 nm and emission wavelength of 590 nm using a microplate reader.
(§10) In the assays, cells are cultured with a test compound for approximately four days, the dye is then added to the cells and fluorescence of […] dye is detected after approximately four hours. Different types of cells can be utilized in the assays (e.g., HCT-116 human colorectal carcinoma cells, PC-3 human prostatic cancer cells and MiaPaca human pancreatic carcinoma cells).

MV-4-11 = assay: Alamar Blue cell proliferation assay, MV-4-11; type: cell-based; details: Homo sapiens
Protocol: as §1, §2, §3, §4, §5, §6, §7, §8, §9, §10

BxPC3 = assay: Alamar Blue cell proliferation assay, BxPC3; type: cell-based; details: Homo sapiens
Protocol: as §1, §2, §3, §4, §5, §6, §7, §8, §9, §10

MDAMB453 = assay: Alamar Blue cell proliferation assay, MDAMB453; type: cell-based; details: Homo sapiens
Protocol: as §1, §2, §3, §4, §5, §6, §7, §8, §9, §10

SUM-149PT = assay: Alamar Blue cell proliferation assay, SUM-149PT; type: cell-based; details: Homo sapiens, SUM149PT
Protocol: as §1, §2, §3, §4, §5, §6, §7, §8, §9, §10

MDAMB231 = assay: Alamar Blue cell proliferation assay, MDAMB231; type: cell-based; details: Homo sapiens, MDA-MB-231, MDAMB231, Table 1, read-out: AB: MDAMB231 IC50
Protocol: as §1, §2, §3, §4, §5, §6, §7, §8, §9, §10

[1] = tested on: MiaPaca human pancreatic carcinoma cells; assay: Alamar Blue cell proliferation assay, MiaPaCa; type: cell-based; details: MIA PaCa-2, Table 1, read-out: AB: MiaPaCa IC50
Protocol: as §1, §2, §3, §4, §5, §6, §7, §8, §9, §10

[2] = tested on: PC-3 human prostatic cancer cells; assay: Alamar Blue cell proliferation assay, PC3; type: cell-based; details: PC-3, PC3, Table 1, read-out: AB: PC3
Protocol: as §1, §2, §3, §4, §5, §6, §7, §8, §9, §10

[3] = MV4-11, MV-4-11, Table 5, read-out: AB: MV-4-11 IC50
[4] = MDA-MB-453, MDAMB453, Table 5, read-out: AB: MDAMB453 IC50
[5] = Table 5, read-out: AB: SUM-149PT IC50
[6] = K562, K-562, Table 1, read-out: AB: K-562 IC50
[7] = MV4-11, MV-4-11, Table 1, read-out: AB: MV-4-11 IC50

Chain of recombinant human PIM2 (Q9P1W9 whole entry): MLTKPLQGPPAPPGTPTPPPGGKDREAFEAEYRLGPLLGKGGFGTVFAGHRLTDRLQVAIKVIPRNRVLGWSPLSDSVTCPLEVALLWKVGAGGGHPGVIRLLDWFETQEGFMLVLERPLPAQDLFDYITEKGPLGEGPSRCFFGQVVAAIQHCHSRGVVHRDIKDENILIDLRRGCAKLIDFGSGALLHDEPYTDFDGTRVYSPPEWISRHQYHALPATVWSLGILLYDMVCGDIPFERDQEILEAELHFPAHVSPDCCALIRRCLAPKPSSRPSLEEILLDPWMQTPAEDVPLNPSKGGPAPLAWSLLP
Chain of recombinant PIM-1 (P11309 whole entry): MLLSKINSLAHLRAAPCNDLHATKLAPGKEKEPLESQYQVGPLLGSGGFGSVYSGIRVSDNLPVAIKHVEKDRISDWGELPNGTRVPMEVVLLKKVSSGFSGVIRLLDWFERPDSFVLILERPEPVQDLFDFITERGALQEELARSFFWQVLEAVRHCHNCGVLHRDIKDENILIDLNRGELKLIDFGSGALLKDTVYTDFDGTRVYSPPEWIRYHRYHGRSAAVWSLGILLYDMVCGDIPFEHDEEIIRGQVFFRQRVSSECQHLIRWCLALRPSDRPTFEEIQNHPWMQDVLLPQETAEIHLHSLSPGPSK
T1 sequence (P68400 whole entry): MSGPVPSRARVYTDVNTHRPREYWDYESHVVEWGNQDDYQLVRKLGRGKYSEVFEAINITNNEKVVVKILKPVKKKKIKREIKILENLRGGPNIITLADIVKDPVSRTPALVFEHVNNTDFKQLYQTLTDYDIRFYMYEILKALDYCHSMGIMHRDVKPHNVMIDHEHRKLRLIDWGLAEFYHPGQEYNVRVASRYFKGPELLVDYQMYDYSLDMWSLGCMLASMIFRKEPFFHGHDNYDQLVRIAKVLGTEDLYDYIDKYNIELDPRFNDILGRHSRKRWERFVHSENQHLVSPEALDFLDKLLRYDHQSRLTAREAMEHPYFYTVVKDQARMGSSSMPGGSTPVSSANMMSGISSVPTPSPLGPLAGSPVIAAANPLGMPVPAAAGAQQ
T1 sequence (P67870 whole entry partner): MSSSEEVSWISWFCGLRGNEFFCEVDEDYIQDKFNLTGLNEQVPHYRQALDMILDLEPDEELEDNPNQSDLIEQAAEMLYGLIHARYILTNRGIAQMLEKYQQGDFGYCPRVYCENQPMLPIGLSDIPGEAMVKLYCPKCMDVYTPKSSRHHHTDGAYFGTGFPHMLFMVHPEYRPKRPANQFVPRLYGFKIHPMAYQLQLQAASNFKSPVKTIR

Row | Structure (SMILES) | IC50 (recombinant human CK2; Table 5) [µM] | IC50 (recombinant human PIM2; Table 5) [µM] | IC50 (recombinant PIM-1; Table 1) [µM] | IC50 (K-562; [6]) [µM] | IC50 (MV-4-11; [7]) [µM] | IC50 (MDAMB231) [µM] | IC50 [1] [µM] | IC50 [2] [µM] | other results
1 | CN1CCCN(c2cncc(-c3cccc(/C=C4\SC(=O)N(C)C4=O)c3)n2)CC1 | > 5 | 2.35 | – | – | – | – | – | – | IC50 (recombinant PIM-1; Table 5): 0.44 µM
2 | CN1CCCN(c2cncc(-c3ccc(/C=C4/SC(=O)NC4=O)c(F)c3)n2)CC1 | > 5 | > 2.5 | – | – | – | – | – | – | IC50 (recombinant PIM-1; Table 5): 1.18 µM
3 | O=C1NC(=O)/C(=C\c2ccc(F)c(-c3cncc(N4CCCN(C(=O)Oc5ccccc5)CC4)n3)c2)S1 | < 0.05 | < 0.05 | – | – | – | – | – | – | IC50 (K-562; K562, K-562, Table 5, read-out: AB: K-562 IC50): 9.37 µM; IC50 (MV-4-11; [3]): 6.3 µM; IC50 (BxPC3; BXPC-3, BxPC3, Table 5, read-out: AB: BxPC3 IC50): 24 µM; IC50 (MDAMB453; [4]): 3.81 µM; IC50 (SUM-149PT; [5]): 6.69 µM
4 | C[C@H](Nc1cncc(-c2cccc(/C=C3\SC(=O)NC3=O)c2)n1)C1CC1 | – | – | – | – | – | – | – | – | IC50 (recombinant human CK2; Table 6): 0.00144 µM; inhibition at 2.5 µM (recombinant human PIM2; @ 2.5 uM, Table 6, read-out: PIM2: % inh @ 2.5 uM): 99.9%; IC50 (BxPC3; BXPC-3, BxPC3, Table 6, read-out: AB: BxPC3 IC50): 17.2 µM; IC50 (MDAMB453; MDA-MB-453, MDAMB453, Table 6, read-out: AB: MDAMB453 IC50): 7.21 µM; IC50 (SUM-149PT; Table 6, read-out: AB: SUM-149PT IC50): 0.703 µM
5 | CN1CCCN(c2cncc(-c3ccc(/C=C4\SC(=S)NC4=O)c(F)c3)n2)CC1 | 0.32 | 0.19 | – | – | – | – | – | – | IC50 (recombinant PIM-1; Table 5): 0.05 µM
6 | CN1CCCN(C(=O)c2cccc(-c3ccc(/C=C4\SC(=S)NC4=O)o3)c2)CC1 | – | – | 0.005 | 2.89 | 0.406 | > 10 | 2.29 | > 30 | IC50 (recombinant human CK2; Table 1): 0.047 µM; IC50 (recombinant human PIM2; Table 1): 0.013 µM
7 | CC(C)NC(=O)N1CCCN(c2cncc(-c3cc(/C=C4/SC(=O)NC4=O)ccc3F)n2)CC1 | < 0.05 | < 0.05 | – | – | – | – | – | – | IC50 (MV-4-11; [3]): 7.7 µM; IC50 (MDAMB453; [4]): 6.28 µM; IC50 (SUM-149PT; [5]): 1.56 µM
8 | CCNC(=O)c1cccc(-c2ccc(/C=C3\SC(=S)NC3=O)o2)c1 | – | – | 0.028 | > 10 | > 10 | > 10 | > 10 | > 30 | IC50 (recombinant human CK2; Table 1): 0.264 µM
9 | O=C1NC(=S)S/C1=C\c1ccc(-c2cccc(C(=O)NCCN3CCCC3)c2)o1 | – | – | 0.074 | > 10 | > 10 | > 10 | > 10 | > 30 | IC50 (recombinant human PIM2; Table 1): 0.704 µM
10 | COc1cc(OC)cc(C(=O)N2CCCN(c3cncc(-c4cc(/C=C5/SC(=O)NC5=O)ccc4F)n3)CC2)c1 | 0.181 | 0.175 | – | – | – | – | – | – | –
11 | CC(=O)NC1CCN(C(=O)c2cccc(-c3ccc(/C=C4\SC(=S)NC4=O)o3)c2)C1 (stereo not drawn) | – | – | 0.038 | > 10 | > 10 | > 10 | > 10 | > 30 | IC50 (recombinant human CK2; Table 1): 0.444 µM

Source: patent US20100331315A1, “RHODANINES AND RELATED HETEROCYCLES AS KINASE INHIBITORS” (priority 2009, published 2010)
